Results taken from EP2108954A1, “A test system for detecting intracellular cyclic nucleotide level and methods and uses thereof” (Max-Planck-Gesellschaft zur Förderung der Wissenschaften …, priority 2008, dated 2009).
pEC50: −log10 of the molar value. Read-outs that look alike come from different tables or passages of the source.

Target: T1, Or22a and Or83b (Drosophila melanogaster, UniProt P81909+Q9VNB5)
T1 construct: expressed in transfected cells; host or cells: HEK293
T1 sequence (P81909 1-397): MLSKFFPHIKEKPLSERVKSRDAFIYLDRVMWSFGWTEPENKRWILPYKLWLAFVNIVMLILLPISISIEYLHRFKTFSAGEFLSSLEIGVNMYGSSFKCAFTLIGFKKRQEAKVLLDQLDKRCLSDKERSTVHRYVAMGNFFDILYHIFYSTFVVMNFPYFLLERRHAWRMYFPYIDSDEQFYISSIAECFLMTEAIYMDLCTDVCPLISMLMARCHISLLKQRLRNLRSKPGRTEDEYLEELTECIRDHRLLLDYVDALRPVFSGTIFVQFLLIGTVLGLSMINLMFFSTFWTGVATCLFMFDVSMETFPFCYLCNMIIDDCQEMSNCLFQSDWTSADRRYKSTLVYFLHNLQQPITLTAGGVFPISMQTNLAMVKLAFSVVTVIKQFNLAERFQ
T1 sequence (Q9VNB5 1-486): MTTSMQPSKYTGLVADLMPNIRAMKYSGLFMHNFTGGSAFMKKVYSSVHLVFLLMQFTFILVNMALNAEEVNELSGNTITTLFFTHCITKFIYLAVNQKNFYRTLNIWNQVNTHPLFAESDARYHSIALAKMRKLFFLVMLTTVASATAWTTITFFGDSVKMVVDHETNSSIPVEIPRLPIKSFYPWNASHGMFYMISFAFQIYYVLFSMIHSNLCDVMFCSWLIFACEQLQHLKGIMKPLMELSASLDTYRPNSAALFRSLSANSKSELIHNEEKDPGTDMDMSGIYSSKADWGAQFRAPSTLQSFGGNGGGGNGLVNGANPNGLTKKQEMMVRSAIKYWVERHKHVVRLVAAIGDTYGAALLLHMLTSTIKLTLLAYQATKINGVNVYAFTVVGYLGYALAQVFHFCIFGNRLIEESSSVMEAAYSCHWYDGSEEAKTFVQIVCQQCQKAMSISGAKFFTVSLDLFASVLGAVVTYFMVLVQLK
Test: Whole-cell patch-clamp of currents in HEK293 cells coexpressing Or22a and Or83b
Format: cell-based
Experimental: In some experiments we transfected cells with pcDNA3-DOR22a-GFP or pcDNA3-DOR83b-GFP alone. We also examined the properties of DOR47a, which was cloned, using standard molecular biology methods into a pcDNA3.1(-) expression vector. To test for putative G-protein coupling, cells were transfected with the respective OR-DNA together with 1.5 µg hHCN2/pcDNA3 (provided by M. Biel, Munich, Germany), with 1 µg hKCNQ4/pcDNA3.1 or with 1 µg hCNGA2/pCMV6-XL4 (Origene, Rockville, MD, USA).
In brief, ion currents in HEK293 cells were measured at room temperature using whole-cell patch-clamp with appropriate compensation of series resistance and of capacitive currents. Additional experiments were performed in the outside-out configuration. Current measurements and data acquisition were performed using an EPC9 patch-clamp amplifier controlled by PatchMaster software (both HEKA Elektronik, Lambrecht, Germany). Patch-clamp pipettes were fabricated from borosilicate capillaries. Pipettes for whole-cell recordings had resistances of 2-4 MΩ for excised-patch recordings the pipette resistance was up to 15 MΩ.
To differentiate between ionotropic and metabotropic pathways of receptor activation (Fig. 2a-d) the pipette solution contained either 2 mM ATP plus 2 mM GTP or 2 mM ADP plus 2 mM GDP (both for whole-cell and outside-out configuration). For the preparation of Cl^--free solutions the chloride salts were substituted by gluconate salts. The pipette Cs^+ solution contained (in mM) 140 CsCl, 1 Mg-ATP, 10 EGTA, 10 HEPES (pH = 7.3), and the Cs^+ bath solution contained (in mM) 140 CsCl, 15 glucose, 15 HEPES (pH = 7.4). The Ca^2+-free bath solution contained (in mM) 140 NaCl, 15 glucose, 15 HEPES, and the Na^+-free bath solution contained (in mM) 140 NMDG-Cl, 10 CaCl2, 10 glucose, 15 HEPES.
With the exception of GDP-γ-S, which was applied via the patch pipette, all substances were applied to the bath using either a bath perfusion system (BPS4 from ALA, New York, USA) or a rapid solution changer (RSC160 from Biologic, Claix, France) which were controlled by the PatchMaster software (HEKA Elektronik).

[1] = Etb 100 nM, 1 s, whole-cell, -60 mV, Or22a C-terminal GFP fusion protein, ADP and GDP (-)
[2] = Etb 100 nM, 1 s, whole-cell, -60 mV, Or22a C-terminal GFP fusion protein, ATP and GTP (+)
[3] = Etb 100 nM, 1 s, whole-cell, -60 mV, Or22a N-terminal GFP fusion protein, ADP and GDP (-)
[4] = Etb 100 nM, 1 s, whole-cell, -60 mV, Or22a N-terminal GFP fusion protein, ATP and GTP (+)
[5] = short Etb application, whole-cell, -60 mV, Tab. 1
[6] = short Etb application, whole-cell, -60 mV, internal ATP and GTP, Tab. 1

CCCC(=O)OCC [Etb, ethyl butyrate]
further increase of current (100 µM Etb after stimulation with 100 µM 8-bromo-cAMP): +1.6 ± 3.8 % of current induced by 8-bromo-cAMP
Etb-induced current in symmetrical Cs+ solutions (140 mM Cs+ in pipette and bath solution, n = 6): No current was detected
pEC50 (EC50 of Etb-induced currents, 500 µM GDP-β-S in the pipette, n = 11): 7.15
latency of Ii (Etb 100 nM, 1 s, whole-cell, -60 mV): < 0.5 s
Ii Decay time [1]: 10.8 ± 0.6 s
Ii Peak size [1]: 133 ± 51 pA
Ii Peak time [1]: 1.13 ± 0.02 s
Im Decay time [1]: 68 ± 8 s
Im Latency [1]: 18 ± 8 s
Im Peak size [1]: 77 ± 7 PA
Im Peak time [1]: 43 ± 9 s
Ii Decay time [2]: 10.5 ± 0.7 s
Ii Peak size [2]: 100 ± 23 pA
Ii Peak time [2]: 1.10 ± 0.03 s
Im Decay time [2]: 79 ± 5 s
Im Latency [2]: 10 ± 2 s
Im Peak size [2]: 291 ± 54 PA
Im Peak time [2]: 58 ± 4 s
Ii Decay time [3]: 10.4 ± 0.9 s
Ii Peak size [3]: 132 ± 38 pA
Ii Peak time [3]: 0.90 ± 0.17 s
Im Decay time [3]: 63 ± 9 s
Im Latency [3]: 24 ± 5 s
Im Peak size [3]: 51 ± 6 PA
Im Peak time [3]: 44 ± 6 s
Ii Decay time [4]: 10.2 ± 0.9 s
Ii Peak size [4]: 98 ± 23 pA
Ii Peak time [4]: 1.16 ± 0.06 s
Im Decay time [4]: 80 ± 8 s
Im Latency [4]: 11 ± 3 s
Im Peak size [4]: 311 ± 51 PA
Im Peak time [4]: 62 ± 9 s
Hill coefficient of olfactory receptor current (ORC) (cells coexpressing Or22a, Or83b and hKCNQ4, n = 6): 0.41
pEC50 (cells coexpressing Or22a, Or83b and hKCNQ4, normalized to maximum response, n = 6, read-out: EC50 of olfactory receptor current (ORC)): 9.59
Hill coefficient of Etb-induced currents (control conditions, n = 9): 0.61
pEC50 (control conditions, n = 9, read-out: EC50 of Etb-induced currents): 9.17
pEC50 (half-maximal effect (current size), metabotropic current response): ~9.15
odorant concentration at which current size saturates (metabotropic current response, Fig. 2f): about 100 nM
odour-induced current in Cl^--free solutions (n = 5): remained unchanged
Ii peak [5]: 1 s
Ii termination [5]: 10 s
Im Latency [6]: 10 s
Im peak [6]: 60 s
Im termination [6]: 80 s
